# From patent publication US9808003B2, “Herbicidally active 2-(substituted-phenyl)-cyclopentane-1,3-dione compounds and derivatives thereof” (Syngenta Limited, priority 2013, dated 2017)
# Tests used:
# Assay type in all cases: in vivo
# [1] = system: Echinochloa crus-galli (ECHCG); test: Test 1A glasshouse assay, pre-emergence herbicidal activity; conditions: 312 h, 250 g/ha, 13 days after application, read-out: Pre-emergence herbicidal activity (% phytotoxicity) ECHCG
# [2] = system: Lolium perenne (LOLPE); test: as above; conditions: 312 h, 250 g/ha, 13 days after application, read-out: Pre-emergence herbicidal activity (% phytotoxicity) LOLPE
# [3] = system: Alopecurus myosuroides (ALOMY); test: as above; conditions: 312 h, 250 g/ha, 13 days after application, read-out: Pre-emergence herbicidal activity (% phytotoxicity) ALOMY
# [4] = system: Avena fatua (AVEFA); test: as above; conditions: 312 h, 250 g/ha, 13 days after application, read-out: Pre-emergence herbicidal activity (% phytotoxicity) AVEFA
# [5] = system: Winter Barley “Suzuka”; test: Test 1B glasshouse assay, post-emergence herbicidal activity against cereal crops; conditions: for Post-emergence herbicidal activity against cereal crops, percentage phytotoxicity, Winter Barley “Suzuka”: 14 DAA
# Summary of the method: (§1)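 Visual percentage damage (100% = total, 0% = none) read 14 days after application, averaged over two replicates. Plants grown 14 days at 22/16 °C day/night before post-emergence spraying of unformulated compound (IF50/acetone, 0.5% v/v Adigor). Rates usually 60–120 g/ha; cloquintocet-mexyl 50 g/ha co-applied where stated.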
# [6] = system: Spring Barley “Harrington”; test: as above; conditions: for Post-emergence herbicidal activity against cereal crops, percentage phytotoxicity, Spring Barley “Harrington”: 14 DAA
# Summary of the method: as §1
# [7] = system: Winter Wheat “Hereward”; test: as above; conditions: for Post-emergence herbicidal activity against cereal crops, percentage phytotoxicity, Winter Wheat “Hereward”: 14 DAA
# Summary of the method: as §1
# [8] = system: Echinochloa crus-galli (ECHCG); test: Test 1A glasshouse assay, post-emergence herbicidal activity; conditions: Echinochloa crus-galli, 312 h, application rate 250 g/ha, 13 days after application, visual (100%=total damage; 0%=no damage), read-out: Post-emergence Herbicidal Activity (% Phytotoxicity) ECHCG
# Summary of the method: (§2)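 Read-out is visual percent phytotoxicity 13 days post-spray, 100% meaning total plant damage and 0% none. Seedlings were treated after 8 days' glasshouse cultivation with an aqueous spray of active ingredient in acetone/water 50:50 plus 0.5% Tween 20.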
# [9] = system: Lolium perenne (LOLPE); test: as above; conditions: Lolium perenne, 312 h, application rate 250 g/ha, 13 days after application, visual (100%=total damage; 0%=no damage), read-out: Post-emergence Herbicidal Activity (% Phytotoxicity) LOLPE
# Summary of the method: as §2
# [10] = system: Alopecurus myosuroides (ALOMY); test: as above; conditions: Alopecurus myosuroides, 312 h, application rate 250 g/ha, 13 days after application, visual (100%=total damage; 0%=no damage), read-out: Post-emergence Herbicidal Activity (% Phytotoxicity) ALOMY
# Summary of the method: as §2
# [11] = system: Avena fatua (AVEFA); test: as above; conditions: Avena fatua, 312 h, application rate 250 g/ha, 13 days after application, visual (100%=total damage; 0%=no damage), read-out: Post-emergence Herbicidal Activity (% Phytotoxicity) AVEFA
# Summary of the method: as §2
# [12] = 30 g/ha herbicide, 50 g/ha cloquintocet-mexyl
# [13] = 45 g/ha herbicide, 50 g/ha cloquintocet-mexyl
# [14] = 60 g/ha herbicide, 0 g/ha cloquintocet-mexyl
# [15] = 60 g/ha herbicide, 50 g/ha cloquintocet-mexyl
# [16] = herbicide 30 g/ha, cloquintocet-mexyl 50 g/ha
# [17] = herbicide 60 g/ha, cloquintocet-mexyl 0 g/ha
# [18] = herbicide 60 g/ha, cloquintocet-mexyl 50 g/ha
# [19] = herbicide 45 g/ha, cloquintocet-mexyl 50 g/ha
Structure (SMILES),inhibition at 250 g/ha [1],inhibition at 250 g/ha [2],inhibition at 250 g/ha [3],inhibition at 250 g/ha [4],"Percentage Phytotoxicity Winter Barley “Suzuka” [5, 16]","Percentage Phytotoxicity Winter Barley “Suzuka” [5, 17]","Percentage Phytotoxicity Winter Barley “Suzuka” [5, 18]","Percentage Phytotoxicity Spring Barley “Harrington” [6, 16]","Percentage Phytotoxicity Spring Barley “Harrington” [6, 17]","Percentage Phytotoxicity Spring Barley “Harrington” [6, 18]","Percentage Phytotoxicity Winter Wheat “Hereward” [7, 16]","Percentage Phytotoxicity Winter Wheat “Hereward” [7, 17]","Percentage Phytotoxicity Winter Wheat “Hereward” [7, 18]",pest or weed control at 250 g/ha [8],pest or weed control at 250 g/ha [9],pest or weed control at 250 g/ha [10],pest or weed control at 250 g/ha [11],further results
Cc1cc(C)c(C2C(=O)CC(CCNC(=O)c3cccc(F)n3)C2=O)c(C)c1 (racemic) [Compound A89],100%,100%,100%,100%,8%,90%,25%,13%,88%,43%,10%,75%,25%,100%,100%,100%,100%,"Post-emergence herbicidal activity against cereal crops, percentage phytotoxicity, Winter Barley “Suzuka” [5, 12]: 8%; Post-emergence herbicidal activity against cereal crops, percentage phytotoxicity, Winter Barley “Suzuka” [5, 13]: 20%; Post-emergence herbicidal activity against cereal crops, percentage phytotoxicity, Winter Barley “Suzuka” [5, 14]: 95%; Post-emergence herbicidal activity against cereal crops, percentage phytotoxicity, Winter Barley “Suzuka” [5, 15]: 73%; Post-emergence herbicidal activity against cereal crops, percentage phytotoxicity, Spring Barley “Harrington” [6, 12]: 13%; Post-emergence herbicidal activity against cereal crops, percentage phytotoxicity, Spring Barley “Harrington” [6, 13]: 55%; Post-emergence herbicidal activity against cereal crops, percentage phytotoxicity, Spring Barley “Harrington” [6, 14]: 95%; Post-emergence herbicidal activity against cereal crops, percentage phytotoxicity, Spring Barley “Harrington” [6, 15]: 85%; Post-emergence herbicidal activity against cereal crops, percentage phytotoxicity, Winter Wheat “Hereward” [7, 12]: 15%; Post-emergence herbicidal activity against cereal crops, percentage phytotoxicity, Winter Wheat “Hereward” [7, 13]: 25%; Post-emergence herbicidal activity against cereal crops, percentage phytotoxicity, Winter Wheat “Hereward” [7, 14]: 60%; Post-emergence herbicidal activity against cereal crops, percentage phytotoxicity, Winter Wheat “Hereward” [7, 15]: 28%"
"Cc1cc(C)c(C2C(=O)CC(CCNC(=O)c3ccc(Br)cn3)C2=O)c(C)c1 (racemic) [Compound A120, 5-bromo-N-{2-[2,4-dioxo-3-(2,4,6-trimethylphenyl)cyclopentyl]ethyl}pyridine-2-carboxamide]",100%,100%,90%,70%,15%,88%,40%,25%,78%,38%,38%,68%,50%,100%,100%,100%,90%,"Percentage Phytotoxicity Winter Barley “Suzuka” [5, 19]: 40%; Percentage Phytotoxicity Spring Barley “Harrington” [6, 19]: 38%; Percentage Phytotoxicity Winter Wheat “Hereward” [7, 19]: 50%"
